Target: T1, integrin α4β7 (RPMI8866 human cells adhering to MAdCAM-1) (Homo sapiens, UniProt P13612+P26010)
T1 construct: RMP18866 cells, which express integrin α4β7; host or cells: RPMI8866
T1 sequence (P13612 34-1032): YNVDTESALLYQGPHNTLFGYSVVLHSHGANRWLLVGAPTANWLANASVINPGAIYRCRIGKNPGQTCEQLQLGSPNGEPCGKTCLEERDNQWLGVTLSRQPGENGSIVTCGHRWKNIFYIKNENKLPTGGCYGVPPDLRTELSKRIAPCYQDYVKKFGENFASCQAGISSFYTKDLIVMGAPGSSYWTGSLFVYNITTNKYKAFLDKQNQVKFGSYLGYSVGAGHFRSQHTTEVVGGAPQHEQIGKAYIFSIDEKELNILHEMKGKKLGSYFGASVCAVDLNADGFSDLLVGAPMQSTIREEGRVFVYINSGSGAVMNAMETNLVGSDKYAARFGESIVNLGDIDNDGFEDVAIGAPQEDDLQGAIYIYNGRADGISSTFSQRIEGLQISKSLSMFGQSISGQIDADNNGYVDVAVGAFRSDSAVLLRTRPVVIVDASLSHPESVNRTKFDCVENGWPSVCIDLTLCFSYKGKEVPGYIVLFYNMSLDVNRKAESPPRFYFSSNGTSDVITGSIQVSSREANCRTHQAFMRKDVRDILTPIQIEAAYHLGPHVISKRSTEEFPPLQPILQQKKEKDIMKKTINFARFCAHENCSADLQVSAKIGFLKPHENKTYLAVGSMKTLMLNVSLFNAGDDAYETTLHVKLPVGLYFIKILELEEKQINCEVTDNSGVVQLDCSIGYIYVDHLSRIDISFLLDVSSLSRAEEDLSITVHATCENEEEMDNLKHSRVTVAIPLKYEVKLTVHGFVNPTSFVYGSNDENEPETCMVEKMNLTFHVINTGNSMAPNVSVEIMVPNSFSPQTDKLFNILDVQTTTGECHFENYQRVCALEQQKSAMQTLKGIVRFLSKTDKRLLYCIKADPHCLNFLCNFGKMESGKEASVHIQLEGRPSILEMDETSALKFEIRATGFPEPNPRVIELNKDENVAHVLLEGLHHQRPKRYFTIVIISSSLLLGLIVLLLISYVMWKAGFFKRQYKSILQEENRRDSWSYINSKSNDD
T1 sequence (P26010 20-798): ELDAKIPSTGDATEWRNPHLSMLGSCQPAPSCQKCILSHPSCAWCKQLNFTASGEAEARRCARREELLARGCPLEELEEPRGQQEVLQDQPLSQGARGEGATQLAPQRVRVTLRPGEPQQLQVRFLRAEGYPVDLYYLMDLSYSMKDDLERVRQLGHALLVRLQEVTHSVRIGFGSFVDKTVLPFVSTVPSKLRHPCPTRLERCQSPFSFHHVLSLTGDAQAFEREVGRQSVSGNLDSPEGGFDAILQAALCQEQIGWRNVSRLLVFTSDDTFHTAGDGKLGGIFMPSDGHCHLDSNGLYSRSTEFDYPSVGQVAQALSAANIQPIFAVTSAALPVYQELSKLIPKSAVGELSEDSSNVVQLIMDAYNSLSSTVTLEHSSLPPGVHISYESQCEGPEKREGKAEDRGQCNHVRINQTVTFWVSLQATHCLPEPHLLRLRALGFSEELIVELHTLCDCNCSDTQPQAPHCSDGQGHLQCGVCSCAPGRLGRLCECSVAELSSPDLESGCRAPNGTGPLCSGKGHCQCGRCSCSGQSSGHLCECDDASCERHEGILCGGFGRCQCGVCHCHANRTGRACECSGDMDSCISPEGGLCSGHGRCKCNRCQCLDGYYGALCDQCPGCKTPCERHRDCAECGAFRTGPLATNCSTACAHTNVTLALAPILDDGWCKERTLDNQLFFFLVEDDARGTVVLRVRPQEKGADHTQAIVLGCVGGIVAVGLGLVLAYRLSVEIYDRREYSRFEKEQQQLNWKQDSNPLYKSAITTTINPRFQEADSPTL
Assay: Integrin α4β7-MAdCAM cell adhesion assay (RPMI8866 cells)
Assay type: cell-based
Details: RPMI8866 cells adhering to MAdCAM; read-out: RPMI8866 Adhesion α4β7/MAdCAM IC50
How it was run: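 Adhesion was read by calcein fluorescence. RPMI8866 cells were labelled at 10 million cells/ml with […] calcein (37° C., 30 min) and washed twice in PBS before reading. Dose-response values were corrected by subtracting cell-free control well fluorescence.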

Structure (SMILES) | IC50 [nM]
CC(C)C[C@@H]1NC(=O)c2ccc(-c3ccc(N4CCN(CC(=O)N5CCN(c6ccc(-c7ccc8cc7CNC(=O)[C@@H]7CCCN7[C@H](C(=O)NC(C)(C)C)[C@H](C)NC(=O)[C@H]([C@@H](C)O)NC(=O)[C@H](CC(=O)O)NC(=O)[C@H](CC(C)C)NC8=O)cc6)CC5)CC4)cc3)c(c2)CNC(=O)[C@@H]2CCCN2[C@H](C(=O)NC(C)(C)C)[C@H](C)NC(=O)[C@H]([C@@H](C)O)NC(=O)[C@H](CC(=O)O)NC1=O [Compound 481] | 36
CC(C)C[C@@H]1NC(=O)c2ccc(-c3ccc(N4CCN(C(=O)c5cc(C(=O)N6CCN(c7ccc(-c8ccc9cc8CNC(=O)[C@@H]8CCCN8[C@H](C(=O)NC(C)(C)C)[C@H](C)NC(=O)[C@H]([C@@H](C)O)NC(=O)[C@H](CC(=O)O)NC(=O)[C@H](CC(C)C)NC9=O)cc7)CC6)cc(C(=O)N6CCN(c7ccc(-c8ccc9cc8CNC(=O)[C@@H]8CCCN8[C@H](C(=O)NC(C)(C)C)[C@H](C)NC(=O)[C@H]([C@@H](C)O)NC(=O)[C@H](CC(=O)O)NC(=O)[C@H](CC(C)C)NC9=O)cc7)CC6)c5)CC4)cc3)c(c2)CNC(=O)[C@@H]2CCCN2[C@H](C(=O)NC(C)(C)C)[C@H](C)NC(=O)[C@H]([C@@H](C)O)NC(=O)[C@H](CC(=O)O)NC1=O [Compound 520] | 6
CC(C)C[C@@H]1NC(=O)c2ccc(-c3ccc(N4CCN(C(=O)CCOCCOCCOCCOCCOCCOCCOCCOCCOCCOCCC(=O)N5CCN(c6ccc(-c7ccc8cc7CNC(=O)[C@@H]7CCCN7[C@H](C(=O)NC(C)(C)C)[C@H](C)NC(=O)[C@H]([C@@H](C)O)NC(=O)[C@H](CC(=O)O)NC(=O)[C@H](CC(C)C)NC8=O)cc6)CC5)CC4)cc3)c(c2)CNC(=O)[C@@H]2CCCN2[C@H](C(=O)NC(C)(C)C)[C@H](C)NC(=O)[C@H]([C@@H](C)O)NC(=O)[C@H](CC(=O)O)NC1=O [Compound 511] | 30
CC(C)C[C@@H]1NC(=O)c2ccc(-c3ccc(N4CCN(C(=O)C5(C(=O)N6CCN(c7ccc(-c8ccc9cc8CNC(=O)[C@@H]8CCCN8[C@H](C(=O)NC(C)(C)C)[C@H](C)NC(=O)[C@H]([C@@H](C)O)NC(=O)[C@H](CC(=O)O)NC(=O)[C@H](CC(C)C)NC9=O)cc7)CC6)Cc6ccccc6C5)CC4)cc3)c(c2)CNC(=O)[C@@H]2CCCN2[C@H](C(=O)NC(C)(C)C)[C@H](C)NC(=O)[C@H]([C@@H](C)O)NC(=O)[C@H](CC(=O)O)NC1=O [Compound 461] | 39
CC(C)C[C@@H]1NC(=O)C[C@H](CCCCN)N(C)C(=O)[C@H](CCCCNC(=O)CCOCCOCCOCCOCCOCCOCCOCCC(=O)NCCCC[C@@H]2NC(=O)[C@@H]3CCCN3[C@H](C(=O)NC(C)(C)C)[C@H](C)NC(=O)[C@H]([C@@H](C)O)NC(=O)[C@H](CC(=O)O)NC(=O)[C@H](CC(C)C)NC(=O)C[C@H](CCCCN)N(C)C2=O)NC(=O)[C@@H]2CCCN2[C@H](C(=O)NC(C)(C)C)[C@H](C)NC(=O)[C@H]([C@@H](C)O)NC(=O)[C@H](CC(=O)O)NC1=O [Compound 536] | 16
